Tests used:
[1] = Storage of phosphate buffered solution; type: physicochemical; conditions: 0.33-33 mg/mL in 50 mM sodium phosphate buffer, 2-8° C.
Protocol: The resultant solution can be stored at 2-8° C. for up to 4 weeks.

[2] = Rat PK Study 2: effect of NaC10 concentration, IC injection; type: in vivo, rats; conditions: peptide 10 mg/Kg
Excerpt: In this example, the effect of the concentration of NaCl0 was studied.

[3] = Dog PK Study: single PO dose of tablets/solution; conditions: peptide 10 mg/Kg, NaC10 50 mg/Kg
Protocol: Poloxamer P188 was also assessed, in combination with NaCl0 with the aim of determining potential synergism. […] Control tablet cores (immediate-release) without the absorption enhancers were also manufactured and dosed as control in the study.
Following dosing of tablets, 10 mL additional water was given. The normal dry diet was returned 2 hours post-dose.

[4] = tested on: IL-23-induced IL-17A secretion; assay: In vitro rat whole blood assay of IL-23-induced IL-17A secretion; type: cell-based; conditions: as quoted in Example 12
[5] = Solubility of acetate form of SEQ ID NO: 1 in various media; type: physicochemical
Protocol: An acetate form of SEQ ID NO: 1 prepared according to Example 1 was evaluated for solubility under various conditions.

## CC(=O)NCCCC[C@@H]1NC(=O)[C@H](Cc2c[nH]c3c(C)cccc23)NC(=O)[C@H]([C@@H](C)O)NC(=O)[C@H](CC(N)=O)NC(=O)[C@@H](NC(C)=O)C(C)(C)SSC(C)(C)[C@@H](C(=O)N[C@@H](Cc2ccc(OCCN)cc2)C(=O)N[C@@H](Cc2ccc3ccccc3c2)C(=O)NC2(C(=O)N[C@@H](CCC(=O)O)C(=O)N[C@@H](CC(N)=O)C(=O)N[C@@H](Cc3cccnc3)C(=O)N(C)CC(N)=O)CCOCC2)NC1=O [Acetate Form of SEQ ID NO: 1]
[1]
  Storage time of solution: up to 4 weeks
[2]; NaC10 20 mg/Kg
  increase of systemic exposure given by NaC10: minimal
[2]; NaC10 50 mg/Kg
  absorption enhancement by NaC10: highest absorption enhancement
[2]; NaC10 100 mg/Kg or 200 mg/Kg
  oral bioavailability on increasing NaC10: did not further increase
[2]; all NaC10 concentrations tested (20, 50, 200 mg/Kg)
  effect of NaC10 on systemic exposure: increased
[3]
  effect of NaC10 on systemic exposure, all tablets: increased
[4]
  IC50 values presented in Table 14: 0.10 to 0.47 ng/mL
[4]; read-out: IC50 values presented in Table 14
  IC50: 0.054 to 0.5 nM
[5]; 0.01 N HCl, aqueous buffer
  solubility: 95 mg/mL
[5]; 0.1 N HCl, aqueous buffer
  solubility: 780 mg/mL
[5]; 0.1 N NaOH, aqueous buffer
  solubility: > 870 mg/mL
[5]; aqueous buffer, Borate buffer pH 9
  solubility: > 220 mg/mL
[5]; aqueous buffer, Citrate buffer pH 2
  solubility: 270 mg/mL
[5]; aqueous buffer, Citrate buffer pH 5
  solubility: 6.9 mg/mL
[5]; aqueous buffer, Phosphate buffer pH 12
  solubility: > 440 mg/mL
[5]; aqueous buffer, phosphate buffer pH 7
  solubility: 7.5 mg/mL
[5]; water
  solubility: 35 mg/mL

Source: patent US11939361B2, “Compositions of peptide inhibitors of Interleukin-23 receptor” (Janssen Pharmaceutica NV, priority 2020, dated 2024)
